In patent publication US7098241B2, “Thiophene hydroxamic acid derivatives” (Hoffmann-La Roche Inc., priority 2002, dated 2006):

Experiments:
[1] = test system: HT-29 cells (human colon carcinoma cell line); test: MTT anti-proliferation assay on HT-29 cells; format: cell-based; details: Homo sapiens, 120 h, 384 well plates, 5 days, read-out: IC50 HT29 384
Description: MTT (3-(4,5-dimethylthiazol-2-yl)-2,5-diphenyl tetrazolium bromide) is widely used for the quantitative determination of cytotoxic effects or in vitro chemosensitivity of tumor cells. The assay is based on the cleavage of the yellow tetrazolium salt (MTT) to purple formazan crystals by metabolic active cells. For details, see Rubinstein, L. V., et al., J. Natl. Cancer Inst. 82 (1990) 1113.
We proceeded as follows: HT-29 cells (human colon carcinoma cell line) were cultivated in RPMI 1640, 2.5% FCS, 2 mM glutamine, 100 u/ml penicillin, 100 ug/ml streptomycin. For the assay the cells were seeded in 384 well plates, 900 cells per well, in the same medium. At the next day, the compounds (dissolved 10 mM in DMSO) were added in various concentrations ranging from 30 uM to 1.5 nM. After 5 days, the MTT assay was done mainly according to the instructions of the manufacturer (Cell proliferation kit I, MTT, from Roche Molecular Biochemicals). In brief: MTT labeling reagent was added to a final concentration of 0.5 mg/ml, added and incubated for 4 hrs at 37° C., 5% CO2. During this incubation time purple formazan crystals are formed. After addition of the solubilization solution (20% SDS in 0.02 M HCl) the plates were incubated overnight at 37° C., 5% CO2. After careful mixing, the plates were measured in Victor 2 (scanning multiwell spectrophotometer, Wallac) at 550 nm.
A decrease in number of living cells results in a decrease in the total metabolic activity in the sample. The decrease directly correlates to the amount of purple color resulting from the solubilization of the purple formazan crystals. Determination of IC50 was done using XL-fit.

recombinant HDAC-1 = target: T1, recombinant HDAC-1 (Homo sapiens, UniProt Q13547); test: HDAC biochemical quench assay; details: recombinant HDAC-1 purified from HEK 293 cells, 1 uM peptide substrate, 90 min at room temperature
T1 construct: made in house; host or cells: HEK 293 cells
T1 sequence (Q13547 whole entry, species assumed): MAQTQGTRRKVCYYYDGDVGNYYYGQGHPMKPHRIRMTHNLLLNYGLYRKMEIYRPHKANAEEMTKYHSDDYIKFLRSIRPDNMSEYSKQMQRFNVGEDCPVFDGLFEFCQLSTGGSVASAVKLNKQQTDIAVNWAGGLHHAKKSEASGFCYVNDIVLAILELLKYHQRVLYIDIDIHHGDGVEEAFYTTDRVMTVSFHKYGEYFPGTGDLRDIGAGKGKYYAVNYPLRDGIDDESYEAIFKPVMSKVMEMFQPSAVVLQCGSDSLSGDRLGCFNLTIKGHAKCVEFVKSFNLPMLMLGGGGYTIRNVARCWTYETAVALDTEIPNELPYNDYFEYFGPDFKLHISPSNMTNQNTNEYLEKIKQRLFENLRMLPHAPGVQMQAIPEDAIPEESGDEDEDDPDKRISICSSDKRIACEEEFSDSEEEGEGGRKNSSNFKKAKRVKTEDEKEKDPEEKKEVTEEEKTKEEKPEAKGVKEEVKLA
Description: The function of histone deacetylase (HDAC) is the deacetylation of lysines in e.g. histone H4. A peptide of 17 amino acids derived from histone H4 was labeled with TAMRA at the C-terminus and QSY-7 at the N-terminus and was used as a substrate (TAMRA-first17 aa of histone H4-QSY7). Following deacetylation by HDAC, the enzyme Lys C is able to cleave the peptide after lysine. […] Inhibition of HDAC by compounds results in low signals because Lys C could not cleave the substrate and the quench effect persists.
For dose response curves, 10 concentrations were diluted 1:3 starting at 30 uM. 10 ul compound dilution were put into each well of a 384 well plate. 10 ul HDAC were added (recombinant HDAC-1 purified from HEK 293 cells; enzyme activity has to be assessed for each preparation). 10 ul peptide substrate was added (1 uM final concentration, derived from 1 mM stock solution diluted 1:1000 in test buffer). After 90 min incubation at room temperature, the reaction was stopped by addition of 20 ul test buffer including 3 ug/ml Lys C and 0.075% SDS. After overnight incubation the fluorescence signal of TAMRA was measured (Victor 2 from Wallac, absorption 544 nm, emission 590 nm). The O.D. of DMSO-treated control wells is 100%, the % inhibition of compound treated wells is calculated in relation to 100%. Based on 10 concentrations a IC50 curve is generated by using XL.fit3.
Test buffer used: a mixture of 10 mM Hepes pH8, 10 mM NaCl, 10% Glycerol, 0.005% Triton X100, 0.1 mM EDTA, 0.1 mM TCEP. As plates were used 384 well plates (black, Greiner, 781077).

[2] = test system: HCT116 tumor cells (human colon adenocarcinoma) xenograft; test: Antitumor activity in a HCT116 xenograft model; format: in vivo, NMRI nude male mice; details: 21 dosing days over 29 days
Description: Determination of Antitumor Activity in a HCT116 Xenograft Model
The HCT116 cell line (NCI line) is derived from a human colon adenocarcinoma and kept in an in house working cell bank. Cells were cultured in RPMI1640/2 mM L-glutamin medium supplemented with 10% heat inactivated FCS. For inoculation HCT116 tumor cells are removed (trypsin-EDTA, 50 U/mg) from culture flasks and transferred into culture medium (RPMI 1640, 10% heat inactivated FCS), washed and resuspended in sterile PBS to achieve a final cell concentration of 5×10^6/100 μl. Cell suspension was carefully mixed by regular shaking to avoid cell aggregation and filled into a 1.0 ml graded syringe. Tumor cell inoculation was performed under light anesthesia (Ethrane.) in the upper ventral quarter of right flank, i.e. between axilla of forelegs and midline region of NMRI nude male mice. In this site 5×10^6 HCT116 tumor cells were s.c. discharged in a volume of 100 μl PBS. All procedures were carried out under SPF conditions wearing appropriate clothings. After s.c. inoculation of tumor cells, measurable tumors developed in all animals. Mice were staged and randomized on day 10 according to the primary tumor dimensions. 21 days daily oral dosing was carried out using the compound of example 1 and compound 3 of WO 93/07148, WO 95/31977, U.S. Pat. No. 5,369,108 ('108 patent) as test article. 75 male NMRI nude mice were divided into 5 study groups. Each group consisted of 15 male animals. The individual groups were given the test article, formulated as microsuspensions in 7.5% modified gelatin with 0.22% NaCl solution, once daily by oral route over 29 days according to the following treatment scheme: 3 days treatment, 2 days drug holiday, 5 days treatment, 2 days drug holiday, 5 days treatment, 2 days drug holiday, 5 days treatment, 2 days drug holiday, 3 days treatment. The application volume was 10 ml/kg. The oral doses chosen were 50, 100, and 200 mg/kg of the compound of example 1 and 200 mg/kg of compound 3 of the '108 patent.

`C[C@@H](NC(=O)c1ccc(C(=O)NO)s1)c1ccccc1` [Example 1, (R)-thiophene-2,5-dicarboxylic acid 2-hydroxyamide 5-[(1-phenyl-ethyl)-amide]] was tested. Which IC50 [1] did it give?
The IC50 was 170 nM.

What about the IC50 (recombinant HDAC-1) of the same molecule?
Its IC50 is 3.4 nM.

And the tumor weight inhibition ([2]; 50 mg/kg oral once daily)?
The tumor weight inhibition was 40%.

And the tumor weight inhibition ([2]; 100 mg/kg oral once daily)?
The tumor weight inhibition was 49%.

And the tumor weight inhibition ([2]; 200 mg/kg oral once daily)?
The tumor weight inhibition was 87%.
